Measurements taken from patent US20080113956A1, “Substituted Porphyrins” (priority 1997, published 2008).

Tests used:
DNA = test: SOD activity in vitro in the presence of DNA (DNA interaction); assay type: biochemical
From the text: The “ortho effect” also decreases the toxicity. It is well known that porphyrins, and particularly cationic porphyrins, interact with DNA and can act as DNA cleavers. This fact can be an issue in the use of metallo-porphyrins as anti-tumor drugs. The present mimetics avoid this interaction.
In order to maximize the decrease in toxicity due to interaction with DNA, two derivatives of the ortho compound have been prepared which carry four ethyl or four butyl groups (“4” and “5”, respectively).

lung injury = test: Bronchopulmonary dysplasia model: premature neonatal baboon in 100% oxygen; assay type: in vivo
From the text: Neonatal baboons were delivered prematurely by Caesarian section and then treated either with 100% oxygen or only sufficient PRN FIO2 to maintain adequate arterial oxygenation. To establish the model, thirteen 100% oxygen treated animals and twelve PRN control animals were studied. Treatment with 100% oxygen results in extensive lung injury manifested by days 9 or 10 of exposure and characterized by delayed alveolarization, lung parenchymal inflammation, and poor oxygenation. This is characteristic of the human disease, bronchopulmonary dysplasia and is thought to be mediated, at least in part, by oxidative stress on the developing neonatal lung. In a first trial of Mn TE-2-PyP, a neonatal baboon was delivered at 140 days gestation and placed in 100% oxygen. The animal received 0.5 mg/kg/24 hr Mn TE-2-PyP qd given i.v. in a continuous infusion over the entire 10 day study period.

airway hyperreactivity = test: Airway hyperreactivity to methacholine in ovalbumin sensitized mice; assay type: in vivo, mouse; details: intratracheal 2 μg daily for 4 days, methacholine 20, 30 and 40 mg/ml
Protocol: Mice were sensitized by intraperitoneal injection of ovalbumin twice, 14 days apart. Fourteen days after the second i.p. injection they were challenged with aerosolized ovalbumin daily for three days. Forty-eight hours after the third inhalation of ovalbumin they were given a 1 minute methacholine challenge and airway hyperreactivity followed using a Buxco body plethysmograph. Significant increases in airway resistance as measured by the PENH index occurred at doses of 20, 30 and 40 mg/ml of methacholine. […] This dose of in TM-2-PyP is equivalent to 0.8 mg/kg whole body dose.

[1] = SOD activity in U/mg (reduction of cytochrome c or photoreduction of NBT); assay type: biochemical; details: for SOD: unit = amount that inhibits one half the reduction of cytochrome c or photoreduction of NBT
rat brain homogenates = test: Iron/ascorbate mediated lipid peroxidation of rat brain homogenates (TBARS); assay type: biochemical; details: for IC50: rat brain homogenate, 30 minutes incubation with iron and ascorbate, TBARS
Protocol: Frozen adult Sprague-Dawley rat brains (Pel-Freez, Rogers, Ark.) were homogenized with a polytron (Turrax T25, Germany) in 5 volumes of ice cold 50 mM potassium phosphate at pH 7.4. Homogenate protein concentration was determined with the Coomassie Plus protein assay (Pierce, Rockford, Ill.) using bovine serum albumin as a standard. The homogenate volume was adjusted with buffer to give a final protein concentration of 10 mg/ml and frozen as aliquots at […].
Rat brain homogenates (2 mg protein) were incubated with varying concentrations of antioxidant at 37° C. for 15 minutes. Oxidation of the rat brain homogenate was initiated by the addition of 0.1 ml of a freshly prepared anaerobic stock solution containing iron(II) chloride (0.25 mM) and ascorbate (1 mM) as previously reported (Braughler et al, J. Biol. Chem. 262:10438 (1987)). Samples (final volume 1 ml) were placed in a shaking water bath at 37° C. for 30 minutes. The reactions were stopped by the addition of 0.1 ml of a stock butylated hydroxytoluene (60 mM) solution in ethanol.
The concentration of thiobarbituric acid reactive species (TBARS) in rat brain homogenates was used as a index of lipid peroxidation (Bernhem et al, J. Biol. Chem. 174:257 (1948); Witz et al, J. Free Rad. Biol. Med. 2:33 (1986); Kikugawa et al, Anal. Biochem. 202:249 (1992); Jentzsch et al, Free Rad. Biol. Med. 20P251 (1996)). Malondialdehyde standards were obtained by adding 8.2 μl of 1,1,3,3-tetramethoxypropane in 10 ml of 0.01 M HCl and mixing for 10 minutes at room temperature. This stock was further diluted in water to give standards that ranged from 0.25 to 25 μM. Samples or standards (200 μl) were acidified with 200 μl of 0.2 M phosphoric acid in 1.5 ml locking microfuge tubes. The color reaction was initiated by the addition of 25 μl of a 0.11M thiobarbituric acid solution and samples were placed in a 90° C. heating block for 45 minutes. TBARS were extracted with 0.5 ml of n-butanol by vortexing samples for 3 minute and chilling on ice for 1 minute. The samples were then centrifuged at 12,000×g for 3 minutes, 150 μl aliquots of the n-butanol phase were placed in each well of a 96-well plate and read at 535 nm in a Thermomax platereader (Molecular Devices, Sunnyvale, Calif.) at 25° C. Sample absorbencies were converted to MDA equivalencies (μM) by extrapolation from the MDA standard curve. None of the antioxidants at concentrations employed in these studies affected the reaction of MDA standards with thiobarbituric acid and reactions without TBA were used as subtraction blanks.
Data were presented as their means ±SE. The inhibitory concentration of antioxidants that decreased the degree of lipid peroxidation by 50% (IC50) and respective 95% confidence intervals (CI) were determined by fitting a sigmoidal curve with variable slope to the data (GraphPad Prizm, San Diego, Calif.).

mean arterial pressure = test: Effect on vascular tone: blood pressure in anesthetized rats; assay type: in vivo; details: rat; for duration of the hypotensive effect: i.v.
Protocol: Rats were anesthetized and a femoral vein and carotid artery were cannulated. While blood pressure was monitored by the carotid artery, Mn TM-2-PyP was injected i.v. at doses ranging from 0.1 to 3.0 mg/kg. Mean arterial pressure fell from 100-125 mmHg to 50-60 mmHg within five to ten minutes. The effect was transient, lasting up to 30 minutes at doses of 0.1 to 0.25 mg/kg. […] Scavenging of superoxide in vascular walls would potentiate the effects of nitric oxide producing hypotension.

| Compound | toxicity due to interaction with DNA, comparison between ortho derivatives (DNA; Table 2 and FIG. 3) | lung pathology: inflammation (lung injury; 0.5 mg/kg/24 hr i.v., 10 days) | clinical decompensation of the lungs (lung injury; days 9 and 10, 0.5 mg/kg/24 hr i.v.) | oxygenation index (lung injury; neonatal baboon, 100% oxygen, 0.5 mg/kg/24 hr i.v. continuous infusion, 10 days) | lung pathology: lung injury (lung injury; vs prior animals treated with 100% oxygen) | airway hyperreactivity (PENH index) (airway hyperreactivity) | difference in SOD activity, ortho vs para ([1]; MnTM-2-PyP vs MnTM-4-PyP) | SOD [1] | interaction with DNA (DNA; SOD activity in vitro in the presence of DNA) | increase in potency as lipid peroxidation inhibitor, ortho vs para (rat brain homogenates; MnTM-2-PyP vs MnTM-4-PyP) | IC50 (rat brain homogenates) | mean arterial pressure after injection (mean arterial pressure; i.v. 0.1 to 3.0 mg/kg, fell from 100-125 mmHg within five to ten minutes) | duration of the hypotensive effect (mean arterial pressure; doses of 0.1 to 0.25 mg/kg) | duration of the hypotensive effect (mean arterial pressure; doses of 1-3 mg/kg) |
| --- | --- | --- | --- | --- | --- | --- | --- | --- | --- | --- | --- | --- | --- | --- |
| CC[n+]1ccccc1-c1c2nc(c(-c3cccc[n+]3CC)c3ccc([n-]3)c(-c3cccc[n+]3CC)c3nc(c(-c4cccc[n+]4CC)c4ccc1[n-]4)C=C3)C=C2.[Mn+3] [MnTE-2-PyP^5+, manganic meso-tetrakis-(N-ethylpyridinium-2-yl)porphyrin] | significantly less toxic than the methyl derivative | absence of inflammation | no evidence of clinical decompensation | marked improvement | marked decrease |  |  |  |  |  |  |  |  |  |
| manganese(III) 5,10,15,20-tetrakis(N-methylpyridyl)porphyrin [MnTM-2-PyP^5+] |  |  |  |  |  | statistically significant reduction | factor of six | 8,500 U/mg | greatly decreased | 15 fold | 1 µM | 50-60 mmHg | up to 30 minutes | up to two hours |
| manganese(III) 5,10,15,20-tetrakis(N-methylpyridyl)porphyrin [MnTM-4-PyP^5+, reference compound] |  |  |  |  |  |  |  | 547 U/mg |  |  | 16 µM |  |  |  |
